Test system: PC-9 lung cancer cells
Test: Anticancer effect in mouse model with PC-9 lung cancer cells
Format: in vivo, Balb/c Nude Mice
Conditions: PC-9 model; singular treatment with EGFR targeting drug, PO QD (Gefitinib 10 mg/kg, Osimertinib 3 mg/kg)
Method: The PC-9 cell line was purchased from NanJing Cobioer Biological Technology Co., Ltd. Cells were kept in RPMI-1640 containing 10% FBS, and cultured in a 37° C. humidified cell culture incubator at 5% […]. All animal experiments were carried out according to the Animal Use and Management Guidelines of Shanghai Medicilon Inc. Under sterile conditions, 2×10^6 PC-9 tumor cells (0.1 mL, cell:Matrigel®=1:1) was administered to the right waist of each animal by S.C. administration. Tumor size and animal body weight were measured twice weekly, and clinical symptoms were recorded daily. The mice will be administered individually according to most recent body weight. The tumors were measured using calipers using two measurements, length (a) and width (b). The volume of the tumors was calculated individually as follows, from the two measured diameters of the tumors: tumor volume (mm^3)=(a×b^2)/2.

## COc1cc2ncnc(Nc3ccc(F)c(Cl)c3)c2cc1OCCCN1CCOCC1 [Gefitinib, reference compound]
  cancer cell regrowth during treatment: early regrowth of cancer cells was observed
